Tests used:
[1] = biological target: T1, human NHE3 (Homo sapiens, UniProt P48764); experiment: Cell-based assay of NHE-3 activity (pre-incubation inhibition), human; conditions: for IC50: PS120 fibroblasts stably expressing human NHE3, 10 min pre-incubation with 0-30 μM test compound, read-out: pIC50 (human Preincubation assay) (converted); for % inhibition (human Preincubation assay): PS120 fibroblasts stably expressing human NHE3, pre-incubation with test compound
T1 sequence (P48764 26-834): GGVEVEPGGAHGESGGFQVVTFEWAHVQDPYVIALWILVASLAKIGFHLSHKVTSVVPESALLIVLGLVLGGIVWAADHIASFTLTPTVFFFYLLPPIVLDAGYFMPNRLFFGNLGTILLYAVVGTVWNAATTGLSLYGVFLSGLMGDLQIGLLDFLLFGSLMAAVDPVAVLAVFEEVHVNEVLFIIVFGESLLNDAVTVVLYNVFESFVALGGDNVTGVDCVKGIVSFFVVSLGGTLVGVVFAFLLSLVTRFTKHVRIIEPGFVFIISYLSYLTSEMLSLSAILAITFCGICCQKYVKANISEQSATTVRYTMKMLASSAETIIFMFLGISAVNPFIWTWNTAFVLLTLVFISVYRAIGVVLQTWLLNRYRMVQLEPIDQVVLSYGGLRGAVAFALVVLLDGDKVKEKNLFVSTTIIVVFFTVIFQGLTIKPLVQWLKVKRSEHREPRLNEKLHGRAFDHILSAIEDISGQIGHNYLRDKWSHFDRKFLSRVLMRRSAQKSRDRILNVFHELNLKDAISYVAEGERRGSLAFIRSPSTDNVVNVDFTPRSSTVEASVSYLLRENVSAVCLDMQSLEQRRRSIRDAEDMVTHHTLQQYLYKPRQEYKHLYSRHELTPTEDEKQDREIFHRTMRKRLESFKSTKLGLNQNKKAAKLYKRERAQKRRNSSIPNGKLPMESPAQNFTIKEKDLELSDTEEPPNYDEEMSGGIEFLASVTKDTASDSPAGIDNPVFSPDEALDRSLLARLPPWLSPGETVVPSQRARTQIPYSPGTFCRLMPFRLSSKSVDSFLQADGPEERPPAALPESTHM
Protocol: Rat and human NHE-3-mediated Na^+-dependent H^+ antiport was measured using a modification of the pH sensitive dye method originally reported by Paradiso (Proc. Natl. Acad. Sci. USA. (1984) 81(23): 7436-7440, which is hereby incorporated by reference in its entirety). PS120 fibroblasts stably expressing human NHE3 were obtained from Mark Donowitz (Baltimore, Md.). Opossum kidney (OK) cells were obtained from the ATCC and propagated per their instructions. The rat NHE-3 gene (GenBank M85300) was introduced into OK cells via electroporation, and cells were seeded into 96 well plates and grown overnight. Medium was aspirated from the wells then incubated for 30 min at 37° C. with NH4Cl-HEPES buffer (20 mM NH4Cl, 80 mM NaCl, 50 mM HEPES, 5 mM KCl, 2 mM CaCl2, 1 mM MgCl2, pH 7.4) containing 5 μM BCECF-AM. Cells were washed once with Ammonium free, Nat-free HEPES (100 mM choline, 50 mM HEPES, 10 mM glucose, 5 mM KCl, 2 mM CaCl2, 1 mM MgCl2, pH 7.4) and incubated in the same buffer for 10 minutes at room temperature to lower intracellular pH with 0-30 μM test compound. […] Changes in intracellular pH were monitored using a FLIPR Tetra® (Molecular Devices, Sunnyvale, Calif.) by excitation at λex 439 to 505 nm, and measuring BCECF fluorescence at λem 538 nm. The initial rate of the fluorescence ratio change was used as a measure of NHE-mediated Na^+/H^+ activity, and reported as the change in fluorescence ratio per minute. Initial rates were plotted as the average 2 or more replicates, and pIC50 values were estimated using GraphPad Prism.

[2] = biological target: T1, human NHE3; experiment: Cell-based assay of NHE-3 activity (human NHE3 inhibition assay); parameters: expressed in transfected cells; host or cells: Opossum kidney (OK) cells (ATCC), electroporated; conditions: OK cells with human NHE-3 gene, BCECF pH recovery, 0-30 μM test compound; read-out: Human NHE3 pIC50 (converted)
Outline: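 Opossum kidney cells electroporated with rat or human NHE-3, loaded with 5 μM BCECF-AM in NH4Cl-HEPES pH 7.4 for 30 min at RT, then acidified 10 min in Na+-free choline HEPES. Na+-dependent pH recovery rates from BCECF fluorescence, averaged over ≥2 replicates, gave pIC50.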

Row | IC50 [1] | % inhibition (human Preincubation assay) [1] | IC50 [2] | SMILES
1 | < 100 nM | C (>70%) | < 100 nM | O=C(NCCCCNC(=O)NCCOCCOCCNS(=O)(=O)c1ccc(O[C@H]2c3ccccc3C[C@@H]2N2CCCCC2)cc1)NCCOCCOCCNS(=O)(=O)c1ccc(O[C@H]2c3ccccc3C[C@@H]2N2CCCCC2)cc1 [Example 14]
2 | < 100 nM | B (40-70%) | > 10000 nM | O=C(NCCCCNC(=O)NCCOCCOCCNS(=O)(=O)c1ccc(O[C@H]2c3cc(Cl)cc(Cl)c3C[C@@H]2N2CCCCC2)cc1)NCCOCCOCCNS(=O)(=O)c1ccc(O[C@H]2c3cc(Cl)cc(Cl)c3C[C@@H]2N2CCCCC2)cc1 [Example 15]
3 | < 100 nM | C (>70%) | < 100 nM | O=C(NCCCCNC(=O)NCCOCCOCCOCCNS(=O)(=O)c1ccc(O[C@H]2c3ccccc3C[C@@H]2N2CCCCC2)cc1)NCCOCCOCCOCCNS(=O)(=O)c1ccc(O[C@H]2c3ccccc3C[C@@H]2N2CCCCC2)cc1 [Example 16]

Continued, compound first:

Row | SMILES | IC50 [1] | % inhibition (human Preincubation assay) [1] | IC50 [2]
4 | O=C(NCCCCNC(=O)NCCOCCOCCNS(=O)(=O)c1ccc(O[C@H]2c3cc(Cl)cc(F)c3C[C@@H]2N2CC[C@@H](O)C2)cc1)NCCOCCOCCNS(=O)(=O)c1ccc(O[C@H]2c3cc(Cl)cc(F)c3C[C@@H]2N2CC[C@@H](O)C2)cc1 [Example 4, (S,S,R)—N,N′-(10,17-dioxo-3,6,21,24-tetraoxa-9,11,16,18-tetraazahexacosane-1,26-diyl)bis(4-((1S,2S)-6-chloro-4-fluoro-2-((R)-3-hydroxypyrrolidin-1-yl)-2,3-dihydro-1H-inden-1-yloxy)benzenesulfonamide)] | < 100 nM | C (>70%) | < 100 nM
5 | CN(C)[C@H]1Cc2c(Cl)cc(Cl)cc2[C@@H]1Oc1ccc(S(=O)(=O)NCCOCCOCCNC(=O)[C@H](O)[C@@H](O)C(=O)NCCOCCOCCNS(=O)(=O)c2ccc(O[C@H]3c4cc(Cl)cc(Cl)c4C[C@@H]3N(C)C)cc2)cc1 [Example 5, (2R,3R)—N1,N4-bis(2-(2-(2-(4-((1S,2S)-4,6-dichloro-2-(dimethylamino)-2,3-dihydro-1H-inden-1-yloxy)phenylsulfonamido)ethoxy)ethoxy)ethyl)-2,3-dihydroxysuccinamide] | < 100 nM | C (>70%) | < 100 nM
6 | O=C(NCCCCNC(=O)NCCOCCOCCNC(=O)Nc1cccc(O[C@H]2c3ccccc3C[C@@H]2N2CCCCC2)c1)NCCOCCOCCNC(=O)Nc1cccc(O[C@H]2c3ccccc3C[C@@H]2N2CCCCC2)c1 [Example 13, 1-{2-[2-(2-{[(3-{[(1S,2S)-2-(piperidin-1-yl)-2,3-dihydro-1H-inden-1-yl]oxy}phenyl)carbamoyl]amino}ethoxy)ethoxy]ethyl}-3-{4-[({2-[2-(2-{[(3-{[(1S,2S)-2-(piperidin-1-yl)-2,3-dihydro-1H-inden-1-yl]oxy}phenyl)carbamoyl]amino}ethoxy)ethoxy]ethyl}carbamoyl)amino]butyl}urea] | > 1000 nM | C (>70%) | 100 to 10000 nM
7 | CN(C)[C@H]1Cc2ccccc2[C@@H]1Oc1ccc(S(=O)(=O)NCCOCCOCCNC(=O)NCCCCNC(=O)NCCOCCOCCNS(=O)(=O)c2ccc(O[C@H]3c4ccccc4C[C@@H]3N(C)C)cc2)cc1 [Example 20] | < 100 nM | C (>70%) | < 100 nM
8 | CN(C)[C@H]1Cc2ccc(Cl)cc2[C@@H]1Oc1ccc(S(=O)(=O)NCCOCCOCCNC(=O)NCCCCNC(=O)NCCOCCOCCNS(=O)(=O)c2ccc(O[C@H]3c4cc(Cl)ccc4C[C@@H]3N(C)C)cc2)cc1 [Example 21] | < 100 nM | C (>70%) | < 100 nM
9 | CN(C)[C@H]1Cc2ccc(F)cc2[C@@H]1Oc1ccc(S(=O)(=O)NCCOCCOCCNC(=O)NCCCCNC(=O)NCCOCCOCCNS(=O)(=O)c2ccc(O[C@H]3c4cc(F)ccc4C[C@@H]3N(C)C)cc2)cc1 [Example 22] | < 100 nM | C (>70%) | < 100 nM

Reference: patent publication US10376481B2, “Compounds and methods for inhibiting NHE-mediated antiport in the treatment of disorders associated with fluid retention or salt overload and gastrointestinal tract disorders” (ARDELYX, INC, priority 2012, dated 2019)
